We go through three molecules from PubChem BioAssay AID1259407 (Chemical Carcinogenesis Research Information System (CCRIS), 2018).

SMILES strings stand for the structures. The source made the active and inactive calls. The rule behind the calls is not given here.

The data set deals with CCRIS mutagenicity, Ames/micronucleus/aberration tests. As to the kind of experiment: CCRIS mutagenicity studies.
[1] abbreviates: Test System: AMES SALMONELLA TYPHIMURIUM, Strain/Indicator: TA98, Metabolic Activation: NONE, Method: STANDARD PLATE.
The mark [2] stands for this setting: Test System: AMES SALMONELLA TYPHIMURIUM, Strain/Indicator: TA98, Metabolic Activation: RAT, LIVER, S-9, AROCLOR 1254, Method: STANDARD PLATE.
Setting [3] is: Test System: AMES SALMONELLA TYPHIMURIUM, Strain/Indicator: TA100, Metabolic Activation: NONE, Method: STANDARD PLATE.
Setting [4] is: Test System: AMES SALMONELLA TYPHIMURIUM, Strain/Indicator: TA100, Metabolic Activation: RAT, LIVER, S-9, AROCLOR 1254, Method: STANDARD PLATE.
[5] abbreviates: Test System: AMES SALMONELLA TYPHIMURIUM, Strain/Indicator: TA1535, Metabolic Activation: NONE, Method: STANDARD PLATE.
[6] abbreviates: Test System: AMES SALMONELLA TYPHIMURIUM, Strain/Indicator: TA1535, Metabolic Activation: RAT, LIVER, S-9, AROCLOR 1254, Method: STANDARD PLATE.
Setting [7] is: Test System: AMES SALMONELLA TYPHIMURIUM, Strain/Indicator: TA1537, Metabolic Activation: NONE, Method: STANDARD PLATE.
[8] abbreviates: Test System: AMES SALMONELLA TYPHIMURIUM, Strain/Indicator: TA1537, Metabolic Activation: RAT, LIVER, S-9, AROCLOR 1254, Method: STANDARD PLATE.
Where [9] appears, read: Test System: AMES SALMONELLA TYPHIMURIUM, Strain/Indicator: TA1538, Metabolic Activation: NONE, Method: STANDARD PLATE.
The mark [10] stands for this setting: Test System: AMES SALMONELLA TYPHIMURIUM, Strain/Indicator: TA1538, Metabolic Activation: RAT, LIVER, S-9, AROCLOR 1254, Method: STANDARD PLATE.

Regarding `C=CCc1ccc(OC)cc1`, the mutagenic call is “inactive; negative” (Test System: AMES SALMONELLA TYPHIMURIUM, Strain/Indicator: TA98, Metabolic Activation: HAMSTER, LIVER, S-9, AROCLOR 1254 (10%), Method: PREINCUBATION); “inactive; negative” (Test System: AMES SALMONELLA TYPHIMURIUM, Strain/Indicator: TA98, Metabolic Activation: NONE, Method: PREINCUBATION); “inactive; negative” under setting [1]; “inactive; negative” (Test System: AMES SALMONELLA TYPHIMURIUM, Strain/Indicator: TA98, Metabolic Activation: RAT, LIVER, S-9, AROCLOR 1254 (10%), Method: PREINCUBATION); “inactive; negative” under setting [2]; “inactive; negative” (Test System: AMES SALMONELLA TYPHIMURIUM, Strain/Indicator: TA100, Metabolic Activation: HAMSTER, LIVER, S-9, AROCLOR 1254 (10%), Method: PREINCUBATION). The mutagenic call runs as follows: (Test System: AMES SALMONELLA TYPHIMURIUM, Strain/Indicator: TA100, Metabolic Activation: NONE, Method: PREINCUBATION) “inactive; negative”; under setting [3], “inactive; negative”; (Test System: AMES SALMONELLA TYPHIMURIUM, Strain/Indicator: TA100, Metabolic Activation: RAT, LIVER, S-9, AROCLOR 1254 (10%), Method: PREINCUBATION) “inactive; negative”; under setting [4], “inactive; negative”; (Test System: AMES SALMONELLA TYPHIMURIUM, Strain/Indicator: TA1535, Metabolic Activation: HAMSTER, LIVER, S-9, AROCLOR 1254 (10%), Method: PREINCUBATION) “inactive; negative”; (Test System: AMES SALMONELLA TYPHIMURIUM, Strain/Indicator: TA1535, Metabolic Activation: NONE, Method: PREINCUBATION) “inactive; negative”. The mutagenic call was “inactive; negative” under setting [5]; “inactive; negative” (Test System: AMES SALMONELLA TYPHIMURIUM, Strain/Indicator: TA1535, Metabolic Activation: PAPS, Method: STANDARD PLATE); “inactive; negative” (Test System: AMES SALMONELLA TYPHIMURIUM, Strain/Indicator: TA1535, Metabolic Activation: RAT, LIVER, S-9, AROCLOR 1254 (10%), Method: PREINCUBATION); “active; positive” (Test System: AMES SALMONELLA TYPHIMURIUM, Strain/Indicator: TA1535, Metabolic Activation: RAT, LIVER, S-9, AROCLOR 1254, PAPS, Method: STANDARD PLATE); “inactive; negative” under setting [6]; “inactive; negative” (Test System: AMES SALMONELLA TYPHIMURIUM, Strain/Indicator: TA1537, Metabolic Activation: HAMSTER, LIVER, S-9, AROCLOR 1254 (10%), Method: PREINCUBATION). The mutagenic call was “inactive; negative” (Test System: AMES SALMONELLA TYPHIMURIUM, Strain/Indicator: TA1537, Metabolic Activation: NONE, Method: PREINCUBATION); “inactive; negative” under setting [7]; “inactive; negative” (Test System: AMES SALMONELLA TYPHIMURIUM, Strain/Indicator: TA1537, Metabolic Activation: RAT, LIVER, S-9, AROCLOR 1254 (10%), Method: PREINCUBATION); “inactive; negative” under setting [8]; “inactive; negative” under setting [9]; “inactive; negative” under setting [10]. The mutagenic call runs as follows: (Test System: UDS RAT HEPATOCYTES, Strain/Indicator: THY INCORP, Metabolic Activation: NONE, Method: IN VITRO) “active; positive”; (Test System: UDS RAT HEPATOCYTES, Strain/Indicator: THY INCORP, Metabolic Activation: NONE, Method: IN VIVO) “active; positive”.

Take `CC(=O)CC(=O)CCC(=O)O`: the mutagenic call (Test System: AMES SALMONELLA TYPHIMURIUM, Strain/Indicator: TA98, Metabolic Activation: HAMSTER, LIVER, S-9, AROCLOR 1254, Method: STANDARD PLATE) is “inactive; negative”; the mutagenic call under setting [1] was “inactive; negative”; the mutagenic call under setting [2] is “inactive; negative”; the mutagenic call (Test System: AMES SALMONELLA TYPHIMURIUM, Strain/Indicator: TA100, Metabolic Activation: HAMSTER, LIVER, S-9, AROCLOR 1254, Method: STANDARD PLATE) was “inactive; negative”; the mutagenic call under setting [3] is “inactive; negative”; the mutagenic call under setting [4] was “inactive; negative”. For the same molecule, the mutagenic call is “inactive; negative” (Test System: AMES SALMONELLA TYPHIMURIUM, Strain/Indicator: TA1535, Metabolic Activation: HAMSTER, LIVER, S-9, AROCLOR 1254, Method: STANDARD PLATE); “inactive; negative” under setting [5]; “inactive; negative” under setting [6]; “inactive; negative” (Test System: AMES SALMONELLA TYPHIMURIUM, Strain/Indicator: TA1537, Metabolic Activation: HAMSTER, LIVER, S-9, AROCLOR 1254, Method: STANDARD PLATE); “inactive; negative” under setting [7]; “inactive; negative” under setting [8]. Also, the mutagenic call is, setting by setting: (Test System: AMES SALMONELLA TYPHIMURIUM, Strain/Indicator: TA1538, Metabolic Activation: HAMSTER, LIVER, S-9, AROCLOR 1254, Method: STANDARD PLATE) “inactive; negative”; under setting [9], “inactive; negative”; under setting [10], “inactive; negative”; (Test System: CHINESE HAMSTER V-79, Strain/Indicator: V-79 (HGPRT)/6-THIOGUANINE, Metabolic Activation: NONE) “inactive; negative”; (Test System: MOUSE LYMPHOMA, Strain/Indicator: L5178Y (TK+/TK-), Metabolic Activation: NONE, Method: SUSPENSION/PLATE) “inactive; negative. reevaluation of results: negative”; (Test System: MOUSE LYMPHOMA, Strain/Indicator: L5178Y (TK+/TK-), Metabolic Activation: RAT, LIVER, S-9, AROCLOR 1254, Method: SUSPENSION/PLATE) “active; positive. reevaluation of results: positive”.

Turning to `CCOCC(O)COc1ccc(NC(=O)CC[S+](C)C)cc1` (stereo not drawn), the mutagenic call by setting is: under setting [1], “inactive; negative”; (Test System: AMES SALMONELLA TYPHIMURIUM, Strain/Indicator: TA98, Metabolic Activation: RAT, LIVER, S-9, Method: STANDARD PLATE) “inactive; negative”; under setting [3], “inactive; negative”; (Test System: AMES SALMONELLA TYPHIMURIUM, Strain/Indicator: TA100, Metabolic Activation: RAT, LIVER, S-9, Method: STANDARD PLATE) “inactive; negative”; under setting [5], “inactive; negative”; (Test System: AMES SALMONELLA TYPHIMURIUM, Strain/Indicator: TA1535, Metabolic Activation: RAT, LIVER, S-9, Method: STANDARD PLATE) “inactive; negative”. For the same molecule, the mutagenic call reads like this: under setting [7], “inactive; negative”; (Test System: AMES SALMONELLA TYPHIMURIUM, Strain/Indicator: TA1537, Metabolic Activation: RAT, LIVER, S-9, Method: STANDARD PLATE) “inactive; negative”; under setting [9], “inactive; negative”; (Test System: AMES SALMONELLA TYPHIMURIUM, Strain/Indicator: TA1538, Metabolic Activation: RAT, LIVER, S-9, Method: STANDARD PLATE) “inactive; negative”; (Test System: E. COLI, Strain/Indicator: WP2, Metabolic Activation: NONE, Method: STANDARD PLATE) “inactive; negative”; (Test System: E. COLI, Strain/Indicator: WP2, Metabolic Activation: RAT, LIVER, S-9, Method: STANDARD PLATE) “inactive; negative”. The mutagenic call (Test System: E. COLI, Strain/Indicator: WP2 UVRA, Metabolic Activation: NONE, Method: STANDARD PLATE) was “inactive; negative” and the mutagenic call (Test System: E. COLI, Strain/Indicator: WP2 UVRA, Metabolic Activation: RAT, LIVER, S-9, Method: STANDARD PLATE) is “inactive; negative”.
